Measured values from patent US8815900B2, “Compounds and compositions for reducing lipid levels” (CVI Pharmaceuticals Limited, priority 2007, dated 2014).

What was measured:
[1] = tested on: PCSK9 mRNA expression in HepG2 cells; experiment: PCSK9 mRNA expression in HepG2 cells, quantitative real-time RT-PCR; format: cell-based, Human; settings: 24 hours, indicated concentrations (FIG. 19B)
Method: The effects of compounds of Formula I, II, III, and IV on the inhibition of PCSK9 mRNA expression was examined (Horton J D, Cohen J C, Hobbs H H. “Molecular biology of PCSK9: its role in LDL metabolism” TRENDS in Biochemical Sciences 2007; 32:71-77; Cameron J, Ranheim T, Kulseth M A, Leren T P, Berge K E. “Berberine decreases PCSK9 expression in HepG2 cells” Atherosclerosis, 2008 online publication). HepG2 cells were treated with new compounds individually at 10 uM dose for 24 hours. Total RNA was harvested for quantitative real-time RT-PCR analysis using method described in Example 16B. The fold activity was derived by dividing the amount of normalized PCSK9 mRNA in compound-treated cells over the amount of PCSK9 mRNA in untreated control cells. In these experiments, berberine chloride (10 uM) was included for comparison (see FIG. 18).
Total RNA was harvested for quantitative real-time RT-PCR analysis using method described in Examples 16B. The fold activity was derived by dividing the amount of normalized LDLR or PCSK9 mRNA in compound-treated cells over the amount of LDLR or PCSK9 mRNA in untreated control cells.

[2] = tested on: LDLR mRNA expression in HepG2 cells; experiment: LDLR mRNA expression in HepG2 cells, quantitative real-time RT-PCR; format: cell-based, Human; settings: 24 hours, indicated concentrations (FIG. 19A)
Method: In yet another experiment, HepG2 cells were treated with various compounds for 24 hours at the indicated doses. Total RNA was isolated and 2 μg was used to generate cDNA in a reaction containing random primers and M-MLV at 37° C. for 1 hour in a volume of […] Real-time PCR was performed on the cDNA using MCEP REALPLEX 2 SYSTEM (Eppendorf) and Universal MasterMix (Applied Biosystems). Human LDLR and GAPDH Pre-Developed TaqMan Assay Reagents (Applied Biosystems) were used to assess the levels of mRNA expressions in HepG2. The levels of LDLR mRNA were normalized to that of GAPDH. Each RNA samples was assayed in triplicate. The abundance of LDLR mRNA in untreated cells was defined as 1, and the amounts of LDLR mRNA from compound-treated cells were plotted relative to that value in FIG. 13. The data shown are mean±s.d.
Activities of some compounds of Formulas I, II, III, and IV on LDLR mRNA expression were determined. HepG2 cells were treated with new compounds individually at a dose less than or equal to 10 μM for 24 hours. Total RNA was harvested for quantitative real-time RT-PCR analysis using the method described in Example 16B. […] In these experiments, berberine chloride was included for comparison.
Quantitative real-time RT-PCR was conducted, and triplicate was assayed in each RNA sample. The data are mean value of triplicates.
Total RNA was harvested for quantitative real-time RT-PCR analysis using method described in Examples 16B.

## COc1cc2c(cc1OC)C1Cc3ccc(OC)c(OS(=O)(=O)c4ccccc4)c3CN1CC2 (centres unmarked) [Compound 91, 2,3,10-trimethoxy-5,6,7,8,13,13a-hexahydroiso-quinolino[2,1-b]isoquinolin-9-yl benzenesulfonate]
[1]
  PCSK9 mRNA expression: inhibits
[2]
  LDLR mRNA expression: dose-dependently increases
